Like-named read-outs stand apart in the source and are kept apart here.
Experiments:
γPKC [1] = target: T1, γPKC (Rattus norvegicus, UniProt P63319); format: cell-based; conditions: after application of ethanol 100 mM; control about 14
T1 construct: from tissue; host or cells: lumbar spinal cord slices of postnatal day 7-10 Sprague-Dawley rats
Method: Fluorescence immunocytochemical studies were performed on the spinal cord sections, as described in Example 3. The sections were incubated with an anti-γPKC antibody and an anti-neuronal antibody to identify neurons. […] Translocation of γPKC was quantified by counting the number of cells with γPKC localized to the nucleus before (control) and after application of ethanol, as well as after washing with artificial cerebrospinal fluid. […] Two to three sections per animal were counted.
Fluorescence immunocytochemical studies were performed on spinal cord sections […] from control slices (perfused with ACSF for 70 minutes) and EtOH treated slices (perfused with ACSF for 30 minutes followed by 20 min 100 mM EtOH and 20 min wash with ACSF). The sections were incubated with a rabbit anti-PKCg polyclonal antibody (1:500) overnight at 4° C. In some cord sections, a mouse anti-neuronal nuclei monoclonal antibody (NeuN, 1:750) was added to identify neurons. After several washes with ACSF, the sections were labeled for 2 hours at room temperature with fluorescein-labeled secondary antibodies (1:500). Double immunofluorescence was assessed with a laser confocal microscope.

γPKC [2] = test system: γPKC
Method: (§1) To determine if EtOH alters the expression and cellular localization of εPKC and γPKC, immunohistochemistry was performed on L4/5 dorsal root ganglion (DRG) and L4/5 lumbar spinal cord sections, as described in Example 4. Rat at postnatal days 7 and 21, treated with saline or 4 g/kg 15% EtOH, were euthanized at 2, 4, or 6 hours post injection for isolation of the lumbar spinal cords.
(§2) Animals administered a single dose of 4 g/kg 15% EtOH or saline (i.p.) were deeply anesthetized with halothane and euthanized at 2, 4, or 6 hours post injection by transcardiac perfusion (phosphate-buffered saline wash, followed by 4% formaldehyde in PBS, pH 7.4). Following perfusion, lumbar spinal cord and L4/L5 dorsal root ganglia (DRG) were isolated and post-fixed for 3 hours in 4% formaldehyde solution followed by cryoprotection in 30% sucrose/PBS at 4° C. Sections were freeze-mounted in OCT-embedding medium on cork blocks and stored at −80° C. until analysis. For spinal cord sections, free-floating immunohistochemistry was performed on 30 μm L4-L5 spinal sections. Dorsal root ganglia were cut on a cryostat at 10 μm and slide mounted. Slides were heated overnight at 32° C. Immunohistochemistry was performed utilizing an avidin-biotin complex (ABC) technique as previously described (Sweitzer et al., Brain Res., 829(1-2):209-221 (1999)). Rabbit polyclonal antibodies to γPKC (1:500 from Santa Cruz) or εPKC (1:1,000 from Santa Cruz) were used. Immunohistochemistry was scored blinded to experimental conditions.
(§3) For both spinal cord tissues and DRG, densitometry using ImageJ software was performed on at least three sections from each of three individual animals.

εPKC = test system: εPKC
Method: as §1, §2, §3

[3] = test system: 7 day old and 21 day old rats; assay: ethanol withdrawal thermal hyperalgesia testing (paw withdrawal latency); format: in vivo, rat; conditions: 4 g/kg 15% EtOH
[4] = for maximal blood EtOH concentration: 30 minutes post 4 g/kg 15% EtOH; for maximal EtOH concentration in spinal cord: 4 g/kg 15% EtOH
in vivo = conditions: rat, 4 g/kg
[5] = test system: 7 day old and 21 day old rats; assay: ethanol withdrawal mechanical allodynia testing (von Frey threshold withdrawal force); format: in vivo, rat
[6] = test system: N-methyl-D-aspartate (NMDA) receptor currents; assay: alcohol withdrawal hyperresponsiveness of NMDA-evoked currents in lumbar spinal cord slice motor neurons; format: cell-based, rat; conditions: 100 mM EtOH, n=11 motor neurons
Excerpt: Spinal cords were taken from young rats, and slices of these cords were made and placed in artificial cerebrospinal fluid for patch clamp electrophysiological analysis, to characterize the ability of γPKC peptides to mediate alcohol withdrawal hyperresponsiveness of N-methyl-D-aspartate (NMDA) receptor currents. FIG. 7A is a schematic diagram of the technique, where a lumbar spinal cord slice 10 is shown. The placement of a recording electrode 12 and a pipette 14 for application of NMDA relative to a motor neuron 16 is illustrated.
Sprague-Dawley rats at postnatal day 7-10 were anesthetized with halothane, decapitated, and the spinal cords were quickly removed. Slices […] thick were sectioned from the lumbar region. Whole cell voltage clamp recordings were made from visually-identified motor neurons using infrared video microscopy, a 60× water immersion lens, and a MultiClamp 700A patch clamp amplifier. Cells were held at a holding potential of −60 mV in artificial cerebrospinal fluid (ACSF) containing bicuculline methiodide ([…]), strychnine ([…]), and tetrodotoxin ([…]). Postsynaptic currents were evoked by direct pressure application of 2 mM N-methyl-D-aspartate (NMDA) from a pipette positioned near the recorded cell at 1-2 min intervals, as illustrated in FIG. 7A. The area of evoked currents during and following 100 mM ethanol (EtOH) application was measured and normalized to the average baseline current area during the 10 minutes preceding EtOH application. Data are expressed as mean +/−SEM: Statistical significance was determined by one-way ANOVA followed by Dunn's or Tukey's multiple comparison test with significance set at p<0.05.

[7] = 21 day old rats, 4 g/kg and 0.5 g/kg 15% EtOH

CCO [EtOH, ethanol]
number of cells having γPKC localized in the nucleus (γPKC [1]): about 6
γPKC cellular localization (γPKC [2]; 2 hours post-EtOH injection): had translocated to the plasma membrane
number of somata staining positive for γPKC above saline control levels (γPKC [2]; 7 day old rats, lamina II, 6 hours post injection of 4 g/kg 15% EtOH): 4 fold
γPKC staining intensity (γPKC [2]; 21 day old rats, 2 to 6 hours post-EtOH injection): γPKC staining intensity increased
cells staining positive for εPKC (εPKC; 7 day old rats, 2 hour exposure to 4 g/kg 15% EtOH): the percentage of cells staining positive for εPKC increased
cells staining positive for εPKC and staining intensity (εPKC; 21 day old rats, 4 g/kg 15% EtOH): did not result in an increase in the number of positive staining cells or in the staining intensity within positively stained cells
thermal paw withdrawal latency after ethanol ([3]; 7 day old rats, 6 hours): Thermal hyperalgesia as evidenced by a decrease in paw withdrawal latency, was observed
thermal paw withdrawal latency after ethanol ([3]; 21 day old rats, entire time period): did not exhibit a decrease in paw withdrawal latency
time of peak spinal cord EtOH level ([4]; 7 day old and 21 day old rats, post injection): 30 min
maximal blood EtOH concentration ([4]; 7 day old pups): 5.91 ± 0.46 µg/mL
maximal EtOH concentration in spinal cord ([4]; 7 day old rats): 14.8 μg/mg tissue
maximal EtOH concentration in spinal cord ([4]; 21 day old rats): 11.4 μg/mg tissue
maximal blood EtOH concentration ([4]; 21 day old rats): 5.67 ± 0.60 µg/mL
time of peak blood EtOH concentration ([4]; both 7 day old and 21 day old rats, post-ethanol injection): 30 min
spinal cord later-phase half-life relative to half life for blood EtOH levels ([4]; rat, in vivo): 50%
half-life (in vivo; spinal cord, ip, T ½ Early, 7 day old rat, 4 g/kg 15% EtOH i.p.): 1.6 h
half-life (in vivo; spinal cord, ip, T ½ Early, 21 day old rat, 4 g/kg 15% EtOH i.p.): 1.5 h
half-life (in vivo; spinal cord, ip, T ½ Late, 7 day old rat, 4 g/kg 15% EtOH i.p.): 11.5 h
half-life (in vivo; spinal cord, ip, T ½ Late, 21 day old rat, 4 g/kg 15% EtOH i.p.): 11.7 h
half-life (in vivo; whole blood, intraperitoneal, extension of blood late phase half-life of 21 day old beyond 7 day old rats, blood): 4 h
half-life (in vivo; whole blood, ip, T ½ Early, Blood, 7 day old rat, 4 g/kg 15% EtOH i.p.): 1.9 h
half-life (in vivo; whole blood, ip, T ½ Early, Blood, 21 day old rat, 4 g/kg 15% EtOH i.p.): 1.7 h
half-life (in vivo; whole blood, ip, T ½ Late, Blood, 7 day old rat, 4 g/kg 15% EtOH i.p.): 18.1 h
half-life (in vivo; whole blood, ip, T ½ Late, Blood, 21 day old rat, 4 g/kg 15% EtOH i.p.): 22.5 h
threshold withdrawal force after ethanol ([5]; 7 day old rats, 1 g/kg 15% EtOH): did not significantly alter the threshold withdrawal force
paw threshold withdrawal force after ethanol ([5]; 7 day old rats, 4 g/kg 15% EtOH, 6 hours and 8 hours post injection): exhibited mechanical allodynia
threshold withdrawal force after ethanol ([5]; 7 day old rats, 4 g/kg 15% EtOH, two hour test interval): slight but insignificant increase in threshold withdrawal force
mechanical thresholds after ethanol [5, 7]: maximally decreased mechanical thresholds at 6 hours post EtOH injection
time withdrawal thresholds remained below baseline [5, 7]: up to 72 hours
normalized NMDA current (INMDA) area after application of alcohol [6]: increases

Source: US8507440B2, “Protein kinase C peptides for use in withdrawal” (The Board of Trustees of the Leland Stanford Junior …, priority 2002, dated 2013)
